Our source for the AC50 values is ChEMBL document CHEMBL5291721, “A preclinical secondary pharmacology resource illuminates target-adverse drug reaction associations of marketed drugs” (Nat Commun, 2023).

By AC50 is commonly meant the midpoint of the concentration-response curve, whichever way the signal moves.

Each structure is given as a SMILES string.

In test [1] the target is T1, Corticotropin-releasing factor receptor 1 (Homo sapiens, UniProt P34998).
T1 sequence (P34998 whole entry): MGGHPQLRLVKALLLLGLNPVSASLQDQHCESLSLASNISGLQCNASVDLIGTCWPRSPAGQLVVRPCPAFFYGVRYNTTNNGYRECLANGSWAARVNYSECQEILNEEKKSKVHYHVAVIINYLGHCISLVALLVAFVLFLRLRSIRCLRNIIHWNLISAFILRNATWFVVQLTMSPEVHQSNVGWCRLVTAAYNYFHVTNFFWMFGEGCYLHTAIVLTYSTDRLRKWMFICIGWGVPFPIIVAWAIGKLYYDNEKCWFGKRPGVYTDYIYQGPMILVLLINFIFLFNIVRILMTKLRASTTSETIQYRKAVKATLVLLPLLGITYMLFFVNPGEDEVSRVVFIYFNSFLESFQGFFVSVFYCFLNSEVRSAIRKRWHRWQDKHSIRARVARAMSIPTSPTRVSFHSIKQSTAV

Test [2] concerns the target Voltage-dependent N-type calcium channel subunit alpha-1B (Rattus norvegicus, UniProt Q02294). It is filed as functional.
For a further test, the target named is T2, Progesterone receptor (Homo sapiens, UniProt P06401).
T2 sequence (P06401 whole entry): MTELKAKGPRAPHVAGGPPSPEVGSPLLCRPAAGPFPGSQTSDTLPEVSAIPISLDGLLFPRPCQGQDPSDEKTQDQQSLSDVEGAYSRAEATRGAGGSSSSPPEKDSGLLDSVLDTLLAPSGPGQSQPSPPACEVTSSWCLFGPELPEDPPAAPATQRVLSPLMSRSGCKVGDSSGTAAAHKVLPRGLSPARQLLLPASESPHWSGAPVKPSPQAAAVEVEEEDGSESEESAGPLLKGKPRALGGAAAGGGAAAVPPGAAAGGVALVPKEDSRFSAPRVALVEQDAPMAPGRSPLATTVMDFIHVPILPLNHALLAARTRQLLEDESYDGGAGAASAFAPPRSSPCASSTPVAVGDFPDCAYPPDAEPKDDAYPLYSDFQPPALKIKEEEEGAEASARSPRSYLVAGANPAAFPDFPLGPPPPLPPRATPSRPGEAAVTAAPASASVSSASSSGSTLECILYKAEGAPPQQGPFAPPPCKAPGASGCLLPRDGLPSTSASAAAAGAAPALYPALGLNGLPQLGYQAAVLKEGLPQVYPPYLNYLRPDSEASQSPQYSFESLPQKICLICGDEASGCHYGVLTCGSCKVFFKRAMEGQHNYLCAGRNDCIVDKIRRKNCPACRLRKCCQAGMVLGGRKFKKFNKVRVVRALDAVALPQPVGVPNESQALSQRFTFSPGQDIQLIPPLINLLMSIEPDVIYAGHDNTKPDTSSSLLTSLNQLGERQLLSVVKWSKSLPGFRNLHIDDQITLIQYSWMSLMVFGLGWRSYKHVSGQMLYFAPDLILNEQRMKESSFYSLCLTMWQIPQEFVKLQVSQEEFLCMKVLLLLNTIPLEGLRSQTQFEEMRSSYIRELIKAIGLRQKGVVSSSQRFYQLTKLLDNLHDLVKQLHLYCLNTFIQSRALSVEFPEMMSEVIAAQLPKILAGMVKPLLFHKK

For test [3], the target named is Beta-3 adrenergic receptor (Homo sapiens, UniProt P13945).
Sequence of Beta-3 adrenergic receptor (P13945 whole entry): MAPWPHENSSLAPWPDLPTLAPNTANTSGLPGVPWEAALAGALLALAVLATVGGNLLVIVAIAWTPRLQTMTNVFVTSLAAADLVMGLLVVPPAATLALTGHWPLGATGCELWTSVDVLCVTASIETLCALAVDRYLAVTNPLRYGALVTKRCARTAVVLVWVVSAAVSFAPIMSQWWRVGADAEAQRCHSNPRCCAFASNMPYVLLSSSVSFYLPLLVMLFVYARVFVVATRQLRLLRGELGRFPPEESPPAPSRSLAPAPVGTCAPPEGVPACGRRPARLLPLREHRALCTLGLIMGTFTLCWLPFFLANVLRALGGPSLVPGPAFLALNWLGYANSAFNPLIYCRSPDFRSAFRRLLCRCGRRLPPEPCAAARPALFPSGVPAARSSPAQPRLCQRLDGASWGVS
Test [4] has as its target Beta-2 adrenergic receptor (Homo sapiens, UniProt P07550). It is filed as functional, cell-based.
In another test the target is Cannabinoid receptor 1 (Homo sapiens, UniProt P21554). Format: functional.
Sequence of Cannabinoid receptor 1 (P21554 whole entry): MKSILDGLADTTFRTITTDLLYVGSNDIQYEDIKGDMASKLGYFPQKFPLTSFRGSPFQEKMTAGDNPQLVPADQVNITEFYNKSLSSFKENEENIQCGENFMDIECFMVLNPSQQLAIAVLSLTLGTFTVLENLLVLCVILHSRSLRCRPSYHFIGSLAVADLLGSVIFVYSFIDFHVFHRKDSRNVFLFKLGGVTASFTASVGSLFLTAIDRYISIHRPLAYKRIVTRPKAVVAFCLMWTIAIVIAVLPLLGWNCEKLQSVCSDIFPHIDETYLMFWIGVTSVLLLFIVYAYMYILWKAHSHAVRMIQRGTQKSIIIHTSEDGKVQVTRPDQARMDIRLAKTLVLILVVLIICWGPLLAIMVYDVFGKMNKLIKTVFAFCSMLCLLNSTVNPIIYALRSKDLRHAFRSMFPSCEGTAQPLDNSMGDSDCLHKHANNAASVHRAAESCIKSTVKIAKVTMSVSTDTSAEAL
Test [5] addresses Beta-1 adrenergic receptor (Homo sapiens, UniProt P08588). It is filed as functional, cell-based.
The target in test [6] is T3, Muscarinic acetylcholine receptor M2 (Homo sapiens, UniProt P08172).
T3 sequence (P08172 whole entry): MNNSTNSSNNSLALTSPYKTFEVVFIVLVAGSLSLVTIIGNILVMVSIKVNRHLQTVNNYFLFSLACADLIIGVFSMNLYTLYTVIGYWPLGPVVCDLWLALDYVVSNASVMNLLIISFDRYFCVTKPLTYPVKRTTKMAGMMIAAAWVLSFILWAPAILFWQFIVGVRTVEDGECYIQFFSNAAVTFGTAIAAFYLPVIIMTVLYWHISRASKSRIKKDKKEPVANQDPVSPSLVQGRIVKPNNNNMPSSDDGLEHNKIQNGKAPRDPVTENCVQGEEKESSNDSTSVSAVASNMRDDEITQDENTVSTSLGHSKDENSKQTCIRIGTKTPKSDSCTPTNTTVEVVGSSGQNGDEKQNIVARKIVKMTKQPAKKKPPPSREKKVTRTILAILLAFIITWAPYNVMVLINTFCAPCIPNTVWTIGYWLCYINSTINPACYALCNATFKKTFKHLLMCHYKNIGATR

Test [7] deals with T4, Peroxisome proliferator-activated receptor gamma (Homo sapiens, UniProt P37231).
T4 sequence (P37231 whole entry): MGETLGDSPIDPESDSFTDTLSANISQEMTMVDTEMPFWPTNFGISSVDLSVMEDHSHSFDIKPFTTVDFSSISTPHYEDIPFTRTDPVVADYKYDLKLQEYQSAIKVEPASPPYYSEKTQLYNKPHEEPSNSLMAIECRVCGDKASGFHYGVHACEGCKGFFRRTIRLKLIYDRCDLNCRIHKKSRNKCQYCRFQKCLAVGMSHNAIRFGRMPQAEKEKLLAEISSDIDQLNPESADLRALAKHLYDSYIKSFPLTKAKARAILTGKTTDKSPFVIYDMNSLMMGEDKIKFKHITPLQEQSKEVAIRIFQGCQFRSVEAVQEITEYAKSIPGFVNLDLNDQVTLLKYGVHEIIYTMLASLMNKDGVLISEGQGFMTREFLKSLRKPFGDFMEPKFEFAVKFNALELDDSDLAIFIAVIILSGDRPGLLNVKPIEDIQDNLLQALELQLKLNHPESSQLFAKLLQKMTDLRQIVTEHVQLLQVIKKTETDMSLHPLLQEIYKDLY
It is filed as functional.
Further: assay procedure not described here.

Sequence of Beta-2 adrenergic receptor (P07550 whole entry): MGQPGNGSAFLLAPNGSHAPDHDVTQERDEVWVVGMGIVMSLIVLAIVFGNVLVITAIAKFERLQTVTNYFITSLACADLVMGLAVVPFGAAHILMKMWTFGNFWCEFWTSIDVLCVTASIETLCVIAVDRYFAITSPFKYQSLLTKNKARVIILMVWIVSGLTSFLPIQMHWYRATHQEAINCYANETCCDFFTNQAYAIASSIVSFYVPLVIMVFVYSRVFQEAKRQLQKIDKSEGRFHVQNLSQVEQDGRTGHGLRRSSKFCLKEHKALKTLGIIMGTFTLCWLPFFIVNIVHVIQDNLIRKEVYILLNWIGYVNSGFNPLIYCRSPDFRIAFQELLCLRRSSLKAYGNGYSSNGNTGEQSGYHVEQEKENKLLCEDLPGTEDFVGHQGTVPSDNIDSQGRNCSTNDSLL
Sequence of Voltage-dependent N-type calcium channel subunit alpha-1B (Q02294 whole entry): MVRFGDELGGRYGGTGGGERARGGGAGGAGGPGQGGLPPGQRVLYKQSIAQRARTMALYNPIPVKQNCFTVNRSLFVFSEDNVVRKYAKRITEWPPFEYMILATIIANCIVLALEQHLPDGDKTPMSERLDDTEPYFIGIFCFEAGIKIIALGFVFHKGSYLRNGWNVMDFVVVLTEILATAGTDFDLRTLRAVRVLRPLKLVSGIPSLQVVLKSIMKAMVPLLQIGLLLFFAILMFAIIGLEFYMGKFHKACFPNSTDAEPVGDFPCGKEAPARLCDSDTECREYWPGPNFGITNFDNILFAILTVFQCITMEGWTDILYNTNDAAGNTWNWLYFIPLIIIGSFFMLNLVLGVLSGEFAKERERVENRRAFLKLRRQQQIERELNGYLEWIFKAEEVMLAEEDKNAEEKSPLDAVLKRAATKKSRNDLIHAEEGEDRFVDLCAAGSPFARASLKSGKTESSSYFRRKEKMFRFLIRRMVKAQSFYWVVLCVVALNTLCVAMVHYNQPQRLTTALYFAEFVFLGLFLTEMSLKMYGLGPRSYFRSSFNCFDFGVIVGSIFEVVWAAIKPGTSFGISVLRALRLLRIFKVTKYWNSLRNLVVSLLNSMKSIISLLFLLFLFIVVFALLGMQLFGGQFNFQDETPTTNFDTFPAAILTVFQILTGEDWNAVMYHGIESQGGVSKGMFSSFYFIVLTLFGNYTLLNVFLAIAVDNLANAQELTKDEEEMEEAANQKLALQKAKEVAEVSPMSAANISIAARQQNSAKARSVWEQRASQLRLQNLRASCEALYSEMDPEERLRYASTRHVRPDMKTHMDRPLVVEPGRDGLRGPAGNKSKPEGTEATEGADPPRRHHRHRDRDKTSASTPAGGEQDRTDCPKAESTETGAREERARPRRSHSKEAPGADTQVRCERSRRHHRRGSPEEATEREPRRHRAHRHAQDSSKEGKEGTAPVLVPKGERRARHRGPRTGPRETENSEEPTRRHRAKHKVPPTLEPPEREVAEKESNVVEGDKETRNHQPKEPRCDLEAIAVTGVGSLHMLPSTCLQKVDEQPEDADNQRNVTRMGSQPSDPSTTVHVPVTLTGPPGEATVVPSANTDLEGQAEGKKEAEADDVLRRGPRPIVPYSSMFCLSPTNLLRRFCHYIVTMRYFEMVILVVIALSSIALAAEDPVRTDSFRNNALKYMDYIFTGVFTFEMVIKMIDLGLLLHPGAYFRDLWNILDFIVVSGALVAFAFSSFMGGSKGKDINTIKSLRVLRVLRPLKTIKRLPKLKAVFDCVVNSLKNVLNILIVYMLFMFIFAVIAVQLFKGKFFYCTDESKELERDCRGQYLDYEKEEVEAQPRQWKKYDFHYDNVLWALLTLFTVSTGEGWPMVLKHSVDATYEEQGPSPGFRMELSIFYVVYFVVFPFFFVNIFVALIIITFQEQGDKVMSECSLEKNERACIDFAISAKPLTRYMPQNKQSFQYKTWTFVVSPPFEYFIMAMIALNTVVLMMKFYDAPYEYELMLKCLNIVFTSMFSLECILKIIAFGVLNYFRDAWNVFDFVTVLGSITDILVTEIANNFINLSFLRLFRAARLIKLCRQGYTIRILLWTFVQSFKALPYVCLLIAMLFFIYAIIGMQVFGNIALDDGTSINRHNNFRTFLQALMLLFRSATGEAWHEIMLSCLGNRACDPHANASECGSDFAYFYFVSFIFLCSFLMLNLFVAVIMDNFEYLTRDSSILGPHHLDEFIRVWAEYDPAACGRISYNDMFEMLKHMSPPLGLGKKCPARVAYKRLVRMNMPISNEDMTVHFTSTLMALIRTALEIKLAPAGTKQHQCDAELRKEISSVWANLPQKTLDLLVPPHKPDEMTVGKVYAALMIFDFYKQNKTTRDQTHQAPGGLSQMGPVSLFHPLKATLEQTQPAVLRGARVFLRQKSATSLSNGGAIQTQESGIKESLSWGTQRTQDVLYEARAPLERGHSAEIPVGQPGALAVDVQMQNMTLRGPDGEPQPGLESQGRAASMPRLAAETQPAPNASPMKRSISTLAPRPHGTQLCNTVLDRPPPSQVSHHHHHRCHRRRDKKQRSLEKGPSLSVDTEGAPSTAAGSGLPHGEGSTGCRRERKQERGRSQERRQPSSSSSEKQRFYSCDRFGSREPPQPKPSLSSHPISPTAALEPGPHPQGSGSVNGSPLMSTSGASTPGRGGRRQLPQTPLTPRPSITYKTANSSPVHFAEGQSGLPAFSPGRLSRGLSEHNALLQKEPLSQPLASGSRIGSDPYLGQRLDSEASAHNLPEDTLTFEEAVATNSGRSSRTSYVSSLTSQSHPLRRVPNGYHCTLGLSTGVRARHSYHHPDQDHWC
Sequence of Beta-1 adrenergic receptor (P08588 whole entry): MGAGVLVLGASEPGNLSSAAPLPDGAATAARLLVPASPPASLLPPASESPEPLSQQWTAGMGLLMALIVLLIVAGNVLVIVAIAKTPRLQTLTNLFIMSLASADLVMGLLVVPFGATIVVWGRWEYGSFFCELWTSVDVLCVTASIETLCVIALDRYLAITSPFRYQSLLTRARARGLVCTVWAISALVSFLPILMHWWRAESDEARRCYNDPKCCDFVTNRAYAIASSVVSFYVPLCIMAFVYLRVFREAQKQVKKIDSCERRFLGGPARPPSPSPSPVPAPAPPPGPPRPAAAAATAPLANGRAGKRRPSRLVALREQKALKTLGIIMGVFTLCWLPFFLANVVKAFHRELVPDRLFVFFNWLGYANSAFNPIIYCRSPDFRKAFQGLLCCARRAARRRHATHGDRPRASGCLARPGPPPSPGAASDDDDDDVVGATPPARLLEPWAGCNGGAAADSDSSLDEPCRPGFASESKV

Turning to `CNS(=O)(=O)Cc1ccc2[nH]cc(CCN(C)C)c2c1`, the AC50 in test [1] is > 30 µM; in test [2], > 10 µM; at Progesterone receptor, > 30 µM; in test [3], > 30 µM; in [4] it was > 30 µM; at Cannabinoid receptor 1, > 10 µM.
Regarding `CC(C)C(=O)c1c(C(C)C)nn2ccccc12` [IBUDILAST], the AC50 in [5] and in [4] was > 30 µM in each case.
`CCCN(CCC)C(=O)C(CCC(=O)O)NC(=O)c1ccccc1` (stereo not given) [PROGLUMIDE]: the AC50 in test [1] is > 30 µM; in test [2] it was > 10 µM; on Progesterone receptor it was > 30 µM; in [3] it was > 30 µM; in [6], > 10 µM.
On to `Clc1ccc(CCCOCCCN2CCCCC2)cc1` [PITOLISANT], for which, in [4], the AC50 is > 30 µM.
Consider `CCC(C(=O)O)c1ccc(N2Cc3ccccc3C2=O)cc1` (stereo not given) [INDOBUFEN], for which the AC50 in test [5] and in [4] was > 30 µM each time.
As for `CCC1(CC)C(=O)NCC(C)C1=O` (stereo not given) [METHYPRYLON], the AC50 in [7] and in test [4] was > 30 µM in each case.
As to `COc1ccc2c3c1O[C@H]1[C@@H](O)C=C[C@H]4[C@@H](C2)N(C)CC[C@@]341` [CODEINE], the AC50 is > 30 µM in test [1]; > 10 µM in [2]; > 30 µM at Progesterone receptor; > 30 µM in [3]; > 10 µM in test [6]; > 10 µM on Cannabinoid receptor 1.
Consider `CCCc1nc(C(C)(C)O)c(C(=O)OCc2oc(=O)oc2C)n1Cc1ccc(-c2ccccc2-c2nnn[nH]2)cc1` [OLMESARTAN MEDOXOMIL], for which the AC50 in test [1] is > 30 µM; in test [2], > 10 µM; on Progesterone receptor, > 30 µM; in [3], > 30 µM; at Cannabinoid receptor 1, > 10 µM.
`CN1CCN(CC/C=C2/c3ccccc3Sc3ccc(S(=O)(=O)N(C)C)cc32)CC1` [THIOTHIXENE]: the AC50 in [1] is > 30 µM; in test [2] it was > 10 µM; on Progesterone receptor it was > 30 µM; in [3], > 30 µM; at Cannabinoid receptor 1, > 10 µM.
On to `COc1ccc(CCN(C)CCCC(C#N)(c2cc(OC)c(OC)c(OC)c2)C(C)C)cc1OC` (stereo not given) [GALLOPAMIL], for which the AC50 in test [5] and in [4] was > 30 µM throughout.
On to `CCc1c(Cl)c(O)c(Cl)c(O)c1C(=O)O[C@H]1[C@H](O)[C@H](OC)[C@H](OC/C2=C\C=C\C[C@H](O)/C(C)=C/[C@H](CC)[C@@H](O[C@@H]3OC(C)(C)[C@@H](OC(=O)C(C)C)[C@H](O)[C@@H]3O)/C(C)=C/C(C)=C/C[C@@H]([C@@H](C)O)OC2=O)O[C@@H]1C` [FIDAXOMICIN], for which the AC50 was > 30 µM in [1]; > 10 µM in [2]; 11.3 µM on Progesterone receptor; > 30 µM in test [3]; > 10 µM in test [6].
`CC1(C)O[C@@H]2C[C@H]3[C@@H]4CCC5=CC(=O)C=C[C@]5(C)[C@H]4[C@@H](O)C[C@]3(C)[C@]2(C(=O)CO)O1` [DESONIDE]: the AC50 in test [4] was > 30 µM.
For `CN1CCC(=C2c3ccccc3CCc3sccc32)CC1` [PIZOTYLINE], the values for the AC50 in test [4] and in test [6] were > 30 µM and 0.059 µM, respectively.
On to `CC(C)Cn1cnc2c(N)nc3ccccc3c21` [IMIQUIMOD], for which the AC50 on Progesterone receptor was > 30 µM.
`CO/N=C(\C(=O)N[C@@H]1C(=O)N2C(C(=O)O)=C(CSc3nnnn3C)CS[C@H]12)c1csc(N)n1` [CEFMENOXIME]: the AC50 in test [7] and in test [4] was > 30 µM in each case.
On to `C#C[C@]1(O)CC[C@H]2[C@@H]3CCC4=Cc5oncc5C[C@]4(C)[C@H]3CC[C@@]21C` [DANAZOL], for which, in test [4], the AC50 is > 30 µM.
In the case of `CC(C)(C)c1cc(C(C)(C)C)c(NC(=O)c2c[nH]c3ccccc3c2=O)cc1O` [IVACAFTOR], the AC50 in test [2] is > 10 µM; on Progesterone receptor, > 30 µM; in [3], 4.4 µM; in test [6], > 10 µM.
Turning to `CCN1CCN(C(=O)N[C@@H](C(=O)N[C@@H]2C(=O)N3C(C(=O)O)=C(CSc4nnnn4C)CS[C@H]23)c2ccc(O)cc2)C(=O)C1=O` [CEFOPERAZONE], the AC50 in test [7] and in [4] was > 30 µM in each case.
`CC(C)OC(=O)CCC/C=C\C[C@@H]1[C@@H](CC[C@@H](O)CCc2ccccc2)[C@H](O)C[C@@H]1O` [LATANOPROST]: the AC50 in test [7] and in test [4] was > 30 µM in each case.
On to `CC[C@@H]1C(=O)OC[C@@H]1Cc1cncn1C` [PILOCARPINE], for which the figures for the AC50 (in test [2]; at Progesterone receptor; in [4]) were > 10 µM, > 30 µM and > 30 µM, respectively.
Take `Cn1c(=O)c2c(ncn2CC2OCCO2)n(C)c1=O` [DOXOFYLLINE]: the AC50 in [5] and in test [4] was > 30 µM each time.
For `N#Cc1ccc([C@H]2CCc3cncn32)c(F)c1` [OSILODROSTAT], the AC50 (in test [2]; in test [6]; on Cannabinoid receptor 1) was > 10 µM each time.
Take `CCCCc1ncc(/C=C(\Cc2cccs2)C(=O)O)n1Cc1ccc(C(=O)O)cc1` [EPROSARTAN]: the AC50 in test [1] was > 30 µM; in test [2] it was > 10 µM; on Progesterone receptor it was > 30 µM; in test [3], > 30 µM; in [4], > 30 µM; in test [6] it was > 10 µM. Further, the AC50 at Cannabinoid receptor 1 was > 10 µM.
Turning to `NCC(=O)CCC(=O)O` [AMINOLEVULINIC ACID], in [4], the AC50 is > 30 µM.
`CN1C(=O)C(O)N=C(c2ccccc2)c2cc(Cl)ccc21` (stereo not given) [TEMAZEPAM]: the AC50 in [1] was > 30 µM; in test [2], > 10 µM; at Progesterone receptor it was > 30 µM; in test [3] it was > 30 µM; in [4] it was > 30 µM; in test [6] it was > 10 µM.
Regarding `CCN(CC)C(=O)N[C@H]1C[C@@H]2c3cccc4[nH]cc(c34)C[C@H]2N(C)C1` [TERGURIDE], the AC50 in test [7] and in test [4] was > 30 µM throughout.
For the compound `CC(=O)O[C@H]1CC[C@@]2(C)C(=CC[C@@H]3[C@@H]2CC[C@]2(C)C(c4cccnc4)=CC[C@@H]32)C1` [ABIRATERONE ACETATE], the AC50 at Progesterone receptor is 3.1 µM; in test [7], > 30 µM; in test [4] it was > 30 µM.
Take `C/C(O)=C(\C#N)C(=O)Nc1ccc(C(F)(F)F)cc1` [TERIFLUNOMIDE]: the AC50 in [7] and in test [4] was > 30 µM each time.
